Target: T1, KivRFp (2-ketoisovalerate reductase) (Fusarium proliferatum, UniProt I3VQI5)
T1 construct: full length, 452 residues, 52 kDa, N-terminal His-tag (pET28a), codon-optimised synthetic gene, E. coli BL21(DE3), Ni-NTA purified
Assay: spectrophotometric NADPH oxidation at […] nm
Assay type: biochemical
Settings: 0.7 mM 2-Kiv, 50 mM sodium phosphate pH 7.0, 35 °C

T1 sequence (I3VQI5 entry or part of it): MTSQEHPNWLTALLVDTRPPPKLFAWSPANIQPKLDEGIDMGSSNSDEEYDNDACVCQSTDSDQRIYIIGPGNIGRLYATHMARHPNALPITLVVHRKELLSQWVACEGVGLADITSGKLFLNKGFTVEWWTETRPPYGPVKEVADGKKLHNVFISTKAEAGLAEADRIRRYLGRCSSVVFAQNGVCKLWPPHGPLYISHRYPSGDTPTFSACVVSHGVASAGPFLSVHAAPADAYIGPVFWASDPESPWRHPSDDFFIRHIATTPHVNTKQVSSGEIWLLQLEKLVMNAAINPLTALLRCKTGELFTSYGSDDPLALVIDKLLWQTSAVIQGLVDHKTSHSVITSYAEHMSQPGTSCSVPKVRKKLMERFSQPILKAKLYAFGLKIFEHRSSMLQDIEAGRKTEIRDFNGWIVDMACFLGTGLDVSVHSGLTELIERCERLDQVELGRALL

| SMILES | spectrophotometric NADPH oxidation at 340 nm (0.29 mM NADPH) | spectrophotometric NADPH oxidation at 340 nm |
| --- | --- | --- |
| CC(C)C(=O)C(=O)O [2-Kiv] | The enzyme exhibited the highest activity towards 2-Kiv as substrate | – |
| NC(=O)C1=CN([C@@H]2O[C@H](COP(=O)(O)OP(=O)(O)OC[C@H]3O[C@@H](n4cnc5c(N)ncnc54)[C@H](OP(=O)(O)O)[C@@H]3O)[C@@H](O)[C@H]2O)C=CC1 [NADPH] | – | KivRFp showed higher coenzyme specificity with respect to NADPH than NADH |
